Drawing on PubChem BioAssay (NCI), this text covers GI50 and TGI for five compounds.

Test systems include KM12 colon; UACC-62 melanoma; HCT-15 colon; ACHN renal; K-562 leukemia; BT-549 breast; HCC-2998 colon; SF-295 CNS; UO-31 renal; SK-MEL-5 melanoma.
Common to all, as to test: DTP human tumour cell line panel, 48 h

Molecules are shown by their SMILES.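 In this assay, cells in 96-well plates receive the compound at five concentrations for 48 hours. Endpoints are linearly interpolated between the surrounding concentrations. GI50 is the concentration that inhibits growth by half. The concentration for full growth arrest is given as TGI.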

The term GI50 denotes the concentration at which growth is held to half of that of the control. As usually defined, the TGI is the concentration giving total growth inhibition. As to `Brc1c[n+](Cc2ccc3ccccc3c2)cn1Cc1ccc2ccccc2c1`, the GI50 was 1.67 µM with KM12 colon; 1.24 µM with UACC-62 melanoma; 11.5 µM with HCT-15 colon; 11.8 µM in the assay on ACHN renal; 1.84 µM in the assay on K-562 leukemia; 1.69 µM in the assay with BT-549 breast. The GI50 in the assay with HCC-2998 colon is 1.46 µM; with SF-295 CNS, 2.22 µM; in the assay with UO-31 renal, 7.09 µM; with SK-MEL-5 melanoma it was 1.6 µM. The TGI was 3.28 µM with KM12 colon; 2.58 µM in the assay with UACC-62 melanoma; 25.7 µM with HCT-15 colon; 25.5 µM in the assay with ACHN renal; 10.6 µM with K-562 leukemia; 3.18 µM in the assay on BT-549 breast. Further, the TGI in the assay with HCC-2998 colon is 2.84 µM; with SF-295 CNS, 7.28 µM; in the assay with UO-31 renal it was 23.1 µM; with SK-MEL-5 melanoma, 2.96 µM.
`CN(C(=O)c1ccc(F)cc1C(F)(F)F)C1CCN(c2nnc(-c3ccnn3C)c3ccccc23)CC1`: the GI50 in the assay with KM12 colon is 52.8 µM; in the assay on UACC-62 melanoma it was 28.9 µM; in the assay on HCT-15 colon, 39.9 µM; with ACHN renal, 51.7 µM; with K-562 leukemia, 27.3 µM; with BT-549 breast, 33.3 µM. Moreover, the GI50 in the assay with HCC-2998 colon was over 93.3 µM; in the assay with SF-295 CNS, 31.5 µM; in the assay on UO-31 renal, 22 µM; in the assay with SK-MEL-5 melanoma, 11.6 µM. Besides, the TGI with KM12 colon, in the assay with UACC-62 melanoma, in the assay with HCT-15 colon, with ACHN renal, with K-562 leukemia and in the assay with BT-549 breast was over 100 µM throughout. Further, the TGI with HCC-2998 colon is over 100 µM; with SF-295 CNS, over 100 µM; in the assay on UO-31 renal it was over 100 µM; with SK-MEL-5 melanoma, 30 µM.
In the case of `COc1cc(-c2c3c(cn2S(=O)(=O)c2ccccc2)-c2nc(N)sc2CC3)cc(OC)c1OC`, the GI50 is 0.722 µM in the assay on KM12 colon; 0.729 µM in the assay on UACC-62 melanoma; 0.432 µM in the assay with HCT-15 colon; 0.797 µM in the assay on ACHN renal; 0.431 µM with K-562 leukemia; 2.75 µM in the assay on BT-549 breast. Besides, the GI50 in the assay on HCC-2998 colon is 4.81 µM; in the assay with SF-295 CNS, 0.372 µM; in the assay with UO-31 renal, 2.98 µM; with SK-MEL-5 melanoma, 0.579 µM. Also, the TGI with KM12 colon was over 100 µM; with UACC-62 melanoma, over 100 µM; in the assay on HCT-15 colon, 27.2 µM; in the assay on ACHN renal, 31.1 µM; with K-562 leukemia, over 100 µM; in the assay with BT-549 breast, 43.1 µM. Besides, the TGI with HCC-2998 colon is over 100 µM; with SF-295 CNS it was 3.52 µM; in the assay on UO-31 renal it was over 100 µM; in the assay on SK-MEL-5 melanoma, 18.8 µM.
As for `COc1ccccc1-c1cc2c3c(nc4ccccc42)C(=O)c2cccnc2-c3n1`, the GI50 with KM12 colon was 9.88 µM; with UACC-62 melanoma it was 16.4 µM; in the assay with HCT-15 colon it was 3.55 µM; with ACHN renal, 13.7 µM; with K-562 leukemia it was over 19.6 µM; with BT-549 breast, 13.3 µM. Moreover, the GI50 in the assay with HCC-2998 colon was 14.8 µM; in the assay on SF-295 CNS, 17.4 µM; with UO-31 renal, 11.1 µM; in the assay with SK-MEL-5 melanoma, 12.5 µM. In addition, the TGI in the assay on KM12 colon is 33.2 µM; in the assay with UACC-62 melanoma, 36.7 µM; in the assay with HCT-15 colon, 8.62 µM; in the assay on ACHN renal, 30.1 µM; in the assay on K-562 leukemia, over 100 µM; with BT-549 breast, 18.1 µM. Further, the TGI with HCC-2998 colon worked out at 30.6 µM; with SF-295 CNS, 50.8 µM; in the assay with UO-31 renal, 23.3 µM; with SK-MEL-5 melanoma, 25.4 µM.
As for `CCCC[C@@H]1NC(=O)[C@H](CCCCN)NC(=O)[C@H](CCCNC(=N)N)NC(=O)[C@H](CC(C)C)NC(=O)[C@@H](NC(=O)[C@H](Cc2cccc(Cl)c2)NC(=O)[C@@H]2CCCN2C(=O)[C@@H](NC(C)=O)C(C)C)CCSSC[C@@H](C(=O)N[C@@H](CCCCN)C(=O)N2CCC[C@H]2C(=O)N2CCC[C@H]2C(=O)N[C@@H](CCC(=O)O)C(N)=O)NC(=O)[C@H](Cc2ccccc2)NC(=O)[C@H](CO)NC(=O)[C@H](C)NC(=O)[C@@H]2CCCN2C1=O`, the GI50 with KM12 colon, with UACC-62 melanoma, with HCT-15 colon, in the assay on ACHN renal, in the assay on K-562 leukemia and in the assay with BT-549 breast was over 50 µM throughout. The GI50 in the assay with HCC-2998 colon, in the assay on SF-295 CNS, in the assay with UO-31 renal and in the assay with SK-MEL-5 melanoma was over 50 µM each time. Also, the TGI in the assay on KM12 colon, in the assay with UACC-62 melanoma, in the assay with HCT-15 colon, in the assay with ACHN renal, in the assay with K-562 leukemia and in the assay with BT-549 breast was over 50 µM each time. For the same compound, the TGI in the assay with HCC-2998 colon, in the assay with SF-295 CNS, in the assay with UO-31 renal and in the assay with SK-MEL-5 melanoma was over 50 µM throughout.
